We go through 1 molecule from patent US8003602B2 (priority 2006, dated 2011).

Converted amounts (≈) assume the structure as drawn.

The conditions of series [1]: solvents in which soluble. The source says: The physico-chemical and spectral properties of the compound PM181104
For another series, the system named is S. aureus E-710. Description: Neutropenic thigh model. The series is classed as in vivo, Balb/C mice. The following applies: 5 mg/kg intravenously two hours post infection, 6 hour time point. The text has this: (§1) The in-vivo potency was established by protection dose (PD) determinations of the compound PM181104 for its antibiotic activity in three animal models using either male or female Balb/C mice.
(§2) The models used were the general purpose efficacy testing models and organ/tissue specific efficacy testing models. The general purpose efficacy testing models used were systemic infection model (septicemia), and localized infection model (neutropenic thigh model). The Organ/Tissue specific infection models used for efficacy testing were kidney, lung infection, and skin abscess model.
Each experimental group consisted of six animals. PM181104 was prepared in cremophor-ethanol formulation as described in example 14.

Another series deals with Streptococcus durans. Description: MIC, Macro-broth dilution method. Type of series: cell-based. The text has this:
(§3) The in-vitro potency was established by minimum inhibitory concentration (MIC) determinations of the compound PM181104 against bacterial strains, by using the Macro-broth dilution method as per National Committee for Clinical Laboratory Standards (2000) guidelines [Journal of Anti-microbial Chemotherapy, 2002, 50, 125-128 (Cross Reference 8: Methods for Dilution Antimicrobial Susceptibility Tests for Bacteria that Grow Aerobically-Fifth Edition: Approved Standard M7-A5. NCCLS, Wayne, Pa., USA)]. Unless stated otherwise, Mueller-Hinton broth was used as nutrient medium for the assay. Linezolid (manufactured by Glenmark Pharma Ltd; Batch no: K2005028) was used as known standard in all in-vitro experiments. For preparation of the stock solution the compound PM181104 was dissolved in chloroform (5% of the total required volume) and diluted using methanol (95% of the total required volume).

The next series relates to Pse. aeruginosa (M-35). Description: MIC, Macro-broth dilution method. Type of series: cell-based.
Excerpt: as §3

The next series relates to E. faecalis ATCC BAA 472. The experiment in a line: MIC, Macro-broth dilution method. Type of series: cell-based.
Excerpt: as §3

Series [2] concerns methicillin resistant Staphylococcus aureus E710 (MRSA). Description: Systemic infection model (septicemia). The following applies: mice infected intraperitoneally with MRSA E710, administered intravenously immediately after infection. The series is classed as in vivo, Balb/C mice.
Excerpt: as §1, §2
The animals were infected intraperitoneally with ˜10^8 to 10^9 cfu of an overnight grown culture of methicillin resistant Staphylococcus aureus E710 (MRSA), suspended in normal saline (0.85% sodium chloride). PM181104 solution was prepared in cremophor-ethanol formulation as described in example 14. The solution was administered intravenously at 5 mg, 2.5 mg and 1.25 mg/kg doses, immediately after infection. Each experimental group consisted of ten animals.

The subject of another series is B. cereus. The experiment in a line: MIC, Macro-broth dilution method. The series is classed as cell-based, Bacillus cereus.
Excerpt: as §3

A further series concerns B. firmus. Description: MIC, Macro-broth dilution method. The series is classed as cell-based, Bacillus firmus.
Excerpt: as §3

Regarding `C=C(NC(=O)C(=C)NC(=O)C1CCCN1C(=O)c1nc(-c2ccc(-c3nc(C(=O)NC(=C)C(=O)NC(C)C(N)=O)cs3)c(-c3csc(C4Cc5nc(cs5)C(=O)NC(Cc5ccccc5)C5=NC(CS5)C(=O)NC(Cc5ccc(O)cc5)C(=O)N5CCCC5c5nc(cs5)C(=O)N4)n3)n2)oc1C)C(N)=O` (centres unmarked) [PM181104], in series [1], the Solubility result is on record as “Methanol, DMSO”. The “decrease in viable counts in thigh tissue” value with S. aureus E-710 was “approximately 1 log”. Besides, the MIC is 0.00781 µg/mL (≈ 0.00515 µM) in the series on Streptococcus durans; above 1 µg/mL with Pse. aeruginosa (M-35); 0.01563 µg/mL (≈ 0.0103 µM) with E. faecalis ATCC BAA 472; 0.00391 µg/mL (≈ 0.00258 µM) against B. cereus; 0.01563 µg/mL (≈ 0.0103 µM) against B. firmus. The molecule also registered a PD100 in series [2] of 5 mg/kg.
